Experimental data reported in patent US12016860B2, “Combination therapies with Cbl-b inhibitor compounds” (Nurix Therapeutics, Inc., priority 2021, dated 2024).

Experiments:
Raji cells = assay: Raji human non-Hodgkin's lymphoma model in SCID mice, combination with rituximab
Protocol: Female CB17 mice with severe combined immunodeficiency (SCID) were intravenously (IV) injected in the tail vein with Raji cells on Day 0 and treated from Day 5 to Day 37 by administration of either: vehicle (0.5% methylcellulose, 0.2% Polysorbate 80 in deionized water+1 eq HCl) daily, orally (PO) or compound 23 at 30 mg/kg daily, PO. Anti-CD20 antibody (rituximab) at 20 mg/kg was intraperitoneally (IP) administered on Day 5, 10, and 15, either alone or in combination with compound 23 at 30 mg/kg daily, PO.

BT549 tumor cell line = assay: Caspase 3/7 apoptosis Incucyte assay with paclitaxel, BT549; assay type: cell-based; conditions: 0.1 μM compound 23, 0.002 μM paclitaxel, vs 0.05% DMSO, combination also vs single agents p<0.0001
Protocol: (§1) BT549 cells were seeded in duplicate into tissue culture treated black-sided, clear-bottom 96-well plates at 5,000 ^cells/well and allowed to adhere and establish for 24 h. Cells were treated with DMSO, compound 23, or Paclitaxel either alone or in combination and were labelled with 1× Essen Bioscience IncuCyte® Caspase-3/7 Green Reagent (final concentration 5 μM). Treated plates were imaged every 2 hours for 48 hours with the IncuCyte® S3 Live-Cell Analysis System. At each timepoint, one image per well was taken in both brightfield and FITC channels on the IncuCyte® S3 Live-Cell Analysis System. Images were analyzed for number of green objects per mm^2 using the IncuCyte S3 v2017A software.
Using a caspase 3/7 apoptosis Incucyte® assay, the effect of compound 23, paclitaxel and the combination of compound 23 and paclitaxel on tumor cell apoptosis was assessed in the BT549 tumor cell line (a mammary gland carcinoma) in vitro.

[1] = test system: DoTc 4510 (BRCA2 mutated) cells; assay: Caspase 3/7 apoptosis Incucyte assay with olaparib, DoTc 4510; assay type: cell-based; conditions: vs 0.05% DMSO, combination also vs single agents p<0.0001
Protocol: as §1, with “BT549 (BRCA wild type) (A) and DoTc 4510 (BRCA2 mutated) (B) cells were” for “BT549 cells were”, “plates at 5,000^cells/well and allowed” for “plates at 5,000 ^cells/well and allowed”, “treated with indicated concentrations of DMSO, compound” for “treated with DMSO, compound”, “23, or Olaparib (FIGS. 13A and 13B) either alone” for “23, or Paclitaxel either alone”, “hours for 72 hours with” for “hours for 48 hours with”

[2] = test system: BT549 (BRCA wild type) cells; assay: Caspase 3/7 apoptosis Incucyte assay with olaparib, BT549; assay type: cell-based; conditions: 1 μM compound 23, 0.05 μM olaparib, vs 0.05% DMSO, combination also vs single agents p<0.0001
Protocol: as §1, with “BT549 (BRCA wild type) (A) and DoTc 4510 (BRCA2 mutated) (B) cells were” for “BT549 cells were”, “plates at 5,000^cells/well and allowed” for “plates at 5,000 ^cells/well and allowed”, “treated with indicated concentrations of DMSO, compound” for “treated with DMSO, compound”, “23, or Olaparib (FIGS. 13A and 13B) either alone” for “23, or Paclitaxel either alone”, “hours for 72 hours with” for “hours for 48 hours with”
Using a caspase 3/7 apoptosis Incucyte assay, the effect of compound 23, PARPi and the combination of compound 23, and PARPi on tumor cell apoptosis was assessed in both BRCA wild type and mutated tumor cell lines in vitro.

rituximab [reference compound] was tested, and the “survival compared to untreated mice” value (Raji cells; compound 23 30 mg/kg daily PO, rituximab 20 mg/kg IP Day 5, 10, 15, p<0.0001) was “significantly higher” and the “survival compared to mice treated with the combination of compound 23 and rituximab” value (Raji cells; p<0.0001) was “significantly lower”.
In the case of `CC(=O)O[C@H]1C(=O)[C@@]2(C)[C@H]([C@H](OC(=O)c3ccccc3)[C@]3(O)C[C@H](OC(=O)[C@H](O)[C@@H](NC(=O)c4ccccc4)c4ccccc4)C(C)=C1C3(C)C)[C@]1(OC(C)=O)CO[C@@H]1C[C@@H]2O` [paclitaxel, reference compound], the “tumor cell apoptosis (caspase 3/7)” value (BT549 tumor cell line) is reported as “did not undergo a significant increase in apoptosis”.
For `O=C(c1cc(Cc2n[nH]c(=O)c3ccccc23)ccc1F)N1CCN(C(=O)C2CC2)CC1` [olaparib, reference compound], the “tumor cell apoptosis (caspase 3/7)” value [1] was “did not significantly increase tumor cell apoptosis” and the “tumor cell apoptosis (caspase 3/7)” value [2] was “did not undergo a significant increase in apoptosis”.
